The text below walks through data of patent publication US10548895B2, “Ligands that target Plasmodium sporozoite binding sites on CD81 and therapeutic methods using them” (American University In Cairo (AUC), priority 2014, dated 2020).

SMILES strings stand for the structures. Entries after “also recorded” stand apart in the source; their conditions may differ.

One assay addresses T1, CD81-LEL (Homo sapiens, UniProt P60033).
T1 construct: A recombinant form of the CD81-LEL protein with a GST tag; gift of Dr. Shoshana Levy, Stanford University
T1 sequence (P60033 113-201 limits assumed): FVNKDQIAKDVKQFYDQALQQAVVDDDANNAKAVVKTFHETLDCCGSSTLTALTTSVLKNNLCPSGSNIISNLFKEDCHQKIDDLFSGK
Put plainly: Surface plasmon resonance binding of ligands to immobilized CD81-LEL. As to conditions: for Binding (change in response units) / Dissociation 1 (change in response units) / Dissociation 2 (change in response units): SPR; for Binding (change in response units): 3 min association; for Dissociation 1 (change in response units) / Dissociation 2 (change in response units): dissociation interval. How it is done:
SPR analysis was performed using a Biacore T200 workstation (GE Healthcare, NJ, USA). A recombinant form of the CD81-LEL protein with a GST tag (generously provided by Dr. Shoshana Levy, Stanford University) was used to confirm, using an established experimental technique, the binding of several ligands to the protein. Briefly, 10 μM CD81-LEL-GST diluted into 10 mM Na-Acetate buffer pH 4.5 was immobilized for 15 min at a flow speed of 5 μl/min onto a CM5 sensor chip using amine-coupling (EDC-NHS), Approximately 20,000 RU of protein were immobilized on the chip. The ligands were prepared as 600 μM solutions in PBS-0.05% Tween-80 (the running buffer) and they were introduced to the protein using a pre-programmed 3 minute association and 1 minute dissociation interval.
SPR analysis was performed using a Biacore T100 workstation (GE Healthcare, NJ, USA). […] Approximately 20,000 RU of protein were immobilized on the chip. The ligands were prepared as 200 uM solutions in PBS-1% DMSO (the running buffer) and they were introduced to the protein using a pre-programmed 3 min association and 1 min dissociation interval.
For orientation: Surface plasmon resonance follows binding to a sensor surface in real time, without labels.

The target of assay [1] is T2, native CD81 on Raji cells (Homo sapiens, UniProt P60033).
T2 construct: endogenous in cells; host or cells: Raji cells (human B cell line)
T2 sequence (P60033 1-236): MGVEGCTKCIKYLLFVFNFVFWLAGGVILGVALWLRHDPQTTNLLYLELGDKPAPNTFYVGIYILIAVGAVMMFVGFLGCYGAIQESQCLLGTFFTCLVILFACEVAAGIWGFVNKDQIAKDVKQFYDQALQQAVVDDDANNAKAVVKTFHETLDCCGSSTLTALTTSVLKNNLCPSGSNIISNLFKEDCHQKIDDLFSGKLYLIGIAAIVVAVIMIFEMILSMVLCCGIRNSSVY
Description: Antibody neutralizing assay: inhibition of JS-81 anti-CD81 antibody binding on Raji cells (FACS). Type of assay: cell-based. The following applies: for inhibition at 50 µM: 50 μM ligand; for inhibition at 50 µM / inhibition at 100 µM / inhibition at 400 µM: Raji cells, read-out: Inhibition of JS-81 Binding (%); for inhibition at 100 µM: 100 μM ligand; for inhibition at 400 µM: 400 μM ligand; for inhibition of anti-CD81 binding (in words): 100 uM and 400 uM. On the procedure: For antibody neutralization assay Raji cells were used, a human B cell line that expressed high amounts of CD81 on the surface (data not shown), Cells were grown in RPMI medium (10% FCS, 1% penicillin/streptomycin, 1% L-glutamine, 1% non-essential amino acids, 1% sodium pyruvate, pH 7.4, at 37° C. with 5% CO2). 2×10^5 cells were incubated with or without different concentrations (50 μM, 100 μM, 400 μM and 1 mM) of indicated inhibitor for 20 min at room temperature, subsequently 1 ul (16 ng/μl) of FITC-labeled anti CD81 antibody (BD Pharmingen, 551108) was added to the cells and incubated for 20 min (antibody titration was performed to obtain a working dilution range, data not shown). Cells were washed and analyzed by FACS (BD FACSCalibur, software: Cell Quest Pro). Mean Fluorescence Intensity MFI was calculated using Flowjo software (TreesStar, www.flowjo.com).

For a further assay, the system named is Plasmodium falciparum. Description: Sporozoite invasion assay, P. falciparum in HepG2-CD81 cells. The assay is classed as cell-based. The following applies: for Percent Infection: HepG2-CD81, Plasmodium falciparum, 400 uM compound; for effect on infection (in words) / percentage of infection inhibition: P. falciparum; for percentage of infection inhibition: HepG2-CD81. On the procedure: (§1) Anopheles stephensi mosquitoes were fed on mice infected with Plasmodium yoelii 17XNL parasites. On day 14 post bloodmeal, salivary glands were harvested, homogenized, sporozoite number was determined using a hemocytometer and the indicated number of sporozoites was added to cell monolayers, Plasmodium falciparum sporozoites were generated by membrane feeding An. stephensi mosquitoes using gametocyte cultures generated in vitro.
(§2) HepG2-CD81 (14) cells were maintained in DMEM supplemented with 10% fetal calf serum and 1 mM glutamine (DMEM/FCS), mAb 2E6 was used for development assays and is directed against Plasmodium Hsp 70 (15) and mAb 2A10 is directed against the repeat region of P. falciparum CSP and was used for invasion assays.
(§3) 5×10^5 HepG2-CD81 cells were plated on collagen coated Lab-Tek wells and allowed to adhere overnight. The following day, cells were preincubated with 400 uM of compound for 30 minutes at 37° C. Controls were pre-incubated with DMSO at the same concentration in which it was found in the compound solutions. 10^5 sporozoites were added to each well and in the case of P. falciparum, incubated for 1.5 hours and scored for invasion whereas in the case of P. yoelii, incubated for 44 hours and scored for exoerythrocytic stages.

Assay [2] has as its system Plasmodium yoelii. Description: Sporozoite development assay, P. yoelii in HepG2-CD81 cells. The assay is classed as cell-based. As to conditions: for Percent Infection: HepG2-CD81, Plasmodium yoelii, 400 uM compound; for effect on infection (in words) / percentage of infection inhibition: P. yoelii, HepG2-CD81. On the procedure: as §1, §2, §3
Assay [3] concerns Plasmodium yoelii. Put plainly: Sporozoite infection assay, P. yoelii in Hepa1-6 cells. As to conditions: for Percent Infection: Hepa1-6 Cells, Plasmodium yoelii; for percentage of infection inhibition / effect on infection (in words): P. yoelii; for percentage of infection inhibition: Hepa1-6; for effect on infection (in words): Hepa1-6 cells. The assay is classed as cell-based.

Assay [4] has as its system Plasmodium berghei. Description: Sporozoite infection assay, P. berghei in Hepa1-6 cells. The assay is classed as cell-based. As to conditions: for Percent Infection: Hepa1-6 Cells, Plasmodium berghei; for percentage of infection inhibition / effect on infection (in words): P. berghei; for percentage of infection inhibition: Hepa1-6; for effect on infection (in words): Hepa1-6 cells.

In assay [5] the test system is Plasmodium berghei. Description: Sporozoite infection assay, P. berghei in HepG2 cells. The assay is classed as cell-based.

For the compound `CCC(C)(C)c1ccc(Oc2cccc(C(=O)O)c2)cc1` [Ligand 7962], at CD81-LEL, the “Binding (change in response units)” value came out at 43.6 response units, the “Dissociation 1 (change in response units)” value is listed as 14.7 response units and the “Dissociation 2 (change in response units)” value was found to be 10.1 response units. Further, in assay [1], the inhibition (commonly how much of the control response was suppressed) at 50 µM was 0%, the inhibition at 100 µM was 0% and the inhibition at 400 µM came out at 19%. In the assay with Plasmodium falciparum, the “Percent Infection” value amounted to 0%, the “effect on infection (in words)” value was “inhibit the infection” and the “percentage of infection inhibition” value is given as 100%. Moreover, in the assay with Plasmodium yoelii [2], the “Percent Infection” value was 0%, the “effect on infection (in words)” value was “inhibit; also recorded: strongest inhibitory effect” and the “percentage of infection inhibition” value is 100%. Moreover, in the assay on Plasmodium yoelii [3], the “Percent Infection” value came out at 0% and the “percentage of infection inhibition” value was 100%. In the assay on Plasmodium berghei [4], the “Percent Infection” value amounted to 0%, the “percentage of infection inhibition” value is listed as 100% and the “effect on infection (in words)” value was “Inhibition”.

With `O=C(O)/C(=C\c1ccccc1)c1ccccc1` [Ligand 40614, 2,3-diphenylprop-2-enoate], on CD81-LEL, the “Binding (change in response units)” value is recorded as 52.5 response units, the “Dissociation 1 (change in response units)” value is listed as 50.8 response units and the “Dissociation 2 (change in response units)” value came out at 43 response units. In addition, in assay [1], the inhibition at 50 µM worked out at 0%, the inhibition at 100 µM was determined as 8% and the inhibition at 400 µM amounted to 26%. Besides, the “effect on infection (in words)” value with Plasmodium falciparum is listed as “wasn't found to enhance infection”. Further, the “effect on infection (in words)” value with Plasmodium yoelii [2] is recorded as “enhance the infection”. In addition, the “effect on infection (in words)” value with Plasmodium yoelii [3] was “enhancing development”. The “effect on infection (in words)” value in the assay on Plasmodium berghei [4] is given as “enhancing development”. For the same compound, the “effect on infection (in words)” value with Plasmodium berghei [5] is given as “enhancing development”.

In the case of `COc1cc(-c2ccc(Nc3ccccc3C(=O)O)c(OC)c2)ccc1Nc1ccccc1C(=O)O` [Ligand 73735, 2-[4-[4-(2-carboxylatoanilino)-3-methoxyphenyl]-2-methoxyanilino]benzoate], on CD81-LEL, the “binding to CD81 by SPR (in words)” value is listed as “bind to CD81-LEL”. Further, in assay [1], the inhibition at 50 µM turned out to be 0%, the “inhibition of anti-CD81 binding (in words)” value is recorded as “inhibit anti-CD81 binding to CD81-LEL in a dose dependent manner”, the inhibition at 100 µM was determined as 0% and the inhibition at 400 µM is 24%. Further, in the assay with Plasmodium falciparum, the “Percent Infection” value worked out at 3.2%, the “effect on infection (in words)” value was “inhibit the infection” and the “percentage of infection inhibition” value was 96.8%. Moreover, in the assay on Plasmodium yoelii [2], the “Percent Infection” value is 23%, the “effect on infection (in words)” value is “inhibit; also recorded: inhibitory effect” and the “percentage of infection inhibition” value is given as 77%. For the same compound, in the assay with Plasmodium yoelii [3], the “Percent Infection” value is 38.3% and the “percentage of infection inhibition” value is 61.7%. In addition, in the assay with Plasmodium berghei [4], the “Percent Infection” value is given as 17.7%, the “percentage of infection inhibition” value was 82.3% and the “effect on infection (in words)” value is given as “Inhibition”.

Take `O=C(O)Cn1ccc2ccccc21` [Ligand 75866, 2-indol-1-ylacetate]: at CD81-LEL, the “Binding (change in response units)” value is 14.3 response units. The “Dissociation 1 (change in response units)” value at CD81-LEL is 18.9 response units. The “Dissociation 2 (change in response units)” value on CD81-LEL was found to be 11.3 response units. For the same compound, the “Percent Infection” value is 84.2% in the assay on Plasmodium falciparum, 42.6% in the assay with Plasmodium yoelii [2], 122% in the assay with Plasmodium yoelii [3] and 135% in the assay on Plasmodium berghei [4]. Also, the “effect on infection (in words)” value in the assay with Plasmodium yoelii [2] was “inhibit; also recorded: inhibitory effect”; in the assay on Plasmodium yoelii [3], “didn't inhibit”; with Plasmodium berghei [4], “didn't inhibit”.

On to `Cc1cc(C)c(N)c(C(=O)O)c1` [Ligand 90444, 2-amino-3,5-dimethylbenzoate], for which, at CD81-LEL, the “Binding (change in response units)” value is given as −1.7 response units, the “Dissociation 1 (change in response units)” value is reported as 13.1 response units and the “Dissociation 2 (change in response units)” value is 5.6 response units. Also, in assay [1], the inhibition at 50 µM turned out to be 0%, the inhibition at 100 µM was 0% and the inhibition at 400 µM came to 24%. For the same compound, the “Percent Infection” value in the assay on Plasmodium falciparum came out at 98.7%. Further, in the assay with Plasmodium yoelii [2], the “Percent Infection” value was 44.3% and the “effect on infection (in words)” value is given as “inhibit; also recorded: inhibitory effect”. In the assay on Plasmodium yoelii [3], the “Percent Infection” value is 222% and the “effect on infection (in words)” value is recorded as “didn't inhibit”. Moreover, in the assay on Plasmodium berghei [4], the “Percent Infection” value stood at 95.6% and the “effect on infection (in words)” value was “didn't inhibit”.

For the compound `CC(C)=CCC1=C(OCC(=O)O)C(=O)c2ccccc2C1=O` [Ligand 98026, 2-[3-(3-methylbut-2-enyl)-1,4-dioxonaphthalen-2-yl]oxyacetate], at CD81-LEL, the “Binding (change in response units)” value came out at 36.6 response units, the “Dissociation 1 (change in response units)” value is reported as 35.9 response units and the “Dissociation 2 (change in response units)” value stood at 28.1 response units. Also, in assay [1], the inhibition at 50 µM came out at 0%, the inhibition at 100 µM was determined as 0% and the inhibition at 400 µM stood at 21%.

As for `CSc1ccc2c(c1)C(N1CCN(C)CC1)Cc1ccccc1S2` (stereo not drawn) [Ligand 281816], the “binding to CD81 by SPR (in words)” value at CD81-LEL is given as “bind to CD81-LEL”. Besides, the “inhibition of anti-CD81 binding (in words)” value in assay [1] was “inhibit anti-CD81 binding to CD81-LEL in a dose dependent manner”.
